The record followed here is ChEMBL document CHEMBL1201862, “PubChem BioAssay data set” (2004).

Test [1] deals with T1, Sphingosine 1-phosphate receptor 2 (Homo sapiens, UniProt O95136). Briefly: Dose Response Cell Based Assay for Agonists of the S1P2 Receptor of Purchased Analogues. [Related pubchem assays: 729, 843, 854, 736 ]. It is filed as functional.
Test [2] has as its target G2/mitotic-specific cyclin-B1 (Homo sapiens, UniProt P14635). The test can be described thus: Counterscreen assay for inhibitors of Wee1 degradation: dose response cell-based assay to identify inhibitors of cyclin B degradation. [Related pubchem assays: 1410, 1321 ]. It is filed as functional.
The target of test [3] is E3 ubiquitin-protein ligase Mdm2 (Homo sapiens, UniProt Q00987). The test can be described thus: MDM2-luc reporter signal enhancers, multi-concentration potency testing, MDM2 ubiquitin-protein ligase inhibitor program, whole-cell format, luminescence detection, 384-well microplate (AID 1394).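 Further: MDM2 E3 inhibitors raise luminescence so EC50 is for signal enhancement.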 The format is functional.
In test [4] the target is T1, Sphingosine 1-phosphate receptor 2. Briefly: Dose Response Cell Based Assay for Antagonists of the S1P2 Receptor. [Related pubchem assays: 856, 736 ]. It is filed as functional.
Test [5] has as its system HeLa. Briefly: Cytotoxicity counterscreen assay for transcriptional activators of heat shock protein 70 (Hsp70). [Related pubchem assays: 1203, 1252 ]. It is filed as functional. As to conditions: Homo sapiens. (A counterscreen serves to expose hits that act by an unwanted route or on another target.);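 further: cells exposed to compound for 16 hours before readout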
Test [6] concerns the target Wee1-like protein kinase (Homo sapiens, UniProt P30291). Briefly: Dose Response Cell-based Assay for Inhibitors of Wee1 Degradation. [Related pubchem assays: 1410, 1321 ]. It is filed as functional.
Test [7] deals with T2, Beta-galactosidase (Escherichia coli, UniProt Q8VNN2). The test can be described thus: PubChem AID 485352. It is filed as functional.
The target in test [8] is Luciferin 4-monooxygenase (Photinus pyralis, UniProt P08659). Briefly: inhibition of purified Photinus pyralis luciferase – biochemical, luminescence, dose response (AID 1891).
Test [9] in a line: Luminescence Cell-Based Dose Confirmation HTS to Identify Inhibitors of Platelet Dense Granule Release. [Related pubchem assays: 1663 (Primary HTS), 1678 (Summary of Project)]. It is filed as functional.
Test [10] can be described thus: microbe, parasite or virus in culture. The format is functional. As to conditions: Mycobacterium tuberculosis.
A short description of test [11]: Luminescence-based dose response cell-based high throughput screening assay for cytotoxic compounds using the IEC-6 intestinal epithelial cell line. [Related pubchem assays: 1858 (Summary AID.), 1825 (Counterscreen.), 1907 (Confirmation screen.)]. It is filed as functional.
In test [12] the target is T3, Type-1 angiotensin II receptor (Homo sapiens, UniProt P30556).
T3 sequence (P30556 whole entry): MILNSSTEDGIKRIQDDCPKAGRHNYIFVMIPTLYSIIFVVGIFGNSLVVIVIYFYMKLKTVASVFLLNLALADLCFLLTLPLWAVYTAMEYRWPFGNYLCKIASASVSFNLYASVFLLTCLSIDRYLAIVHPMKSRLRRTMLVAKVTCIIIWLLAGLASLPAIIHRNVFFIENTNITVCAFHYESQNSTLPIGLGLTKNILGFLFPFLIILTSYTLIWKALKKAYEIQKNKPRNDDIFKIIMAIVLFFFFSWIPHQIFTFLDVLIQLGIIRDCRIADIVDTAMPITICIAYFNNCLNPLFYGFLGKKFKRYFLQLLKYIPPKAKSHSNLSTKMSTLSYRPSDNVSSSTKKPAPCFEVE
Briefly: antagonism of angiotensin II type 1 receptor – cell-based, uHTS hits, selectivity assay for APJ receptor antagonist project, dose response (AID 463214).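 Further: antagonist potency against angiotensin II stimulated AT1 response.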 It is filed as functional.

In test [13] the target is T4, Kappa-type opioid receptor (Homo sapiens, UniProt P41145). The format is functional.
For test [14], the target named is T2, Beta-galactosidase. It is filed as functional.
In test [15] the target is Sphingosine 1-phosphate receptor 4 (Homo sapiens, UniProt O95977). Briefly: Fluorescence dose response cell-based high throughput screening assay for antagonists of the Sphingosine 1-Phosphate Receptor 4 (S1P4). [Related pubchem assays: 1524 (Confirmation in triplicates.), 1510 (Primary screen.)]. The format is functional.
For test [16], the target named is T4, Kappa-type opioid receptor. It is filed as functional. The source holds these as a separate data set.
Test [17] addresses Sphingosine 1-phosphate receptor 1 (Homo sapiens, UniProt P21453). The format is functional.
Test [18] in a line: HEK-293T viability loss after treatment – luminescence, T-cell screen hits, cytotoxicity control for TCR NF-kB inhibitor project, dose response (AID 489026).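 Further: cells exposed to compound about 14 hours before the viability readout.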 It is filed as functional, cell-based.
Test [19] has as its system INS1. The test can be described thus: INS-1E survival protection against cytokine death – cell-based, luminescence, retest, dose response (AID 449756).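 Further: cell death triggered by IL-1 beta plus TNF-alpha plus IFN-gamma mixture; protective hits raise ATP signal compared with cytokine alone wells.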 It is filed as functional. Conditions: Rattus norvegicus.
For test [20], the target named is Estrogen receptor (Homo sapiens, UniProt P03372).
Test [21] has as its target T5, Estrogen receptor beta (Homo sapiens, UniProt Q92731).
Test [22] has as its target T5, Estrogen receptor beta. Briefly: blockers of SRC-3 recruitment to ERβ – biochemical, ELISA, streptavidin-HRP readout, orthogonal assay, confirmation (AID 1060). Background: ELISA stands for enzyme-linked immunosorbent assay.
In test [23] the target is Mothers against decapentaplegic homolog 3 (Homo sapiens, UniProt P84022). The test can be described thus: blockers of Smad3 complex formation in lysate – cell lysate, secondary confirmation, chemiluminescent ELISA, HEK293 lysate, dose response (AID 1058). The format is functional.

Active and inactive are the calls of the source.

T5 sequence (Q92731 whole entry): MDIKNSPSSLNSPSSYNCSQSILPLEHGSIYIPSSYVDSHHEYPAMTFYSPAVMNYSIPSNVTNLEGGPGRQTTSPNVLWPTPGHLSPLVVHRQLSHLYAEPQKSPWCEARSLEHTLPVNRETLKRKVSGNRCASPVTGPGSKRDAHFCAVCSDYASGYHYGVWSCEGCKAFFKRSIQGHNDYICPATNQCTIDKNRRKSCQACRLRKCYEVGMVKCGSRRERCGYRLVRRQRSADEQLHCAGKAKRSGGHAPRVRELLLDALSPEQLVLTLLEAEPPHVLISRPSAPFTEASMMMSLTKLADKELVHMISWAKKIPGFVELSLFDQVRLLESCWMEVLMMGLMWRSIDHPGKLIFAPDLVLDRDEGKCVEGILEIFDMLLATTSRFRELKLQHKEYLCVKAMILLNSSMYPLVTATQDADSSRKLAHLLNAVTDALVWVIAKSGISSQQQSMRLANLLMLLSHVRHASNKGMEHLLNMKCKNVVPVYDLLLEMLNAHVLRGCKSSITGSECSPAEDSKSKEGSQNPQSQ
T2 sequence (Q8VNN2 whole entry): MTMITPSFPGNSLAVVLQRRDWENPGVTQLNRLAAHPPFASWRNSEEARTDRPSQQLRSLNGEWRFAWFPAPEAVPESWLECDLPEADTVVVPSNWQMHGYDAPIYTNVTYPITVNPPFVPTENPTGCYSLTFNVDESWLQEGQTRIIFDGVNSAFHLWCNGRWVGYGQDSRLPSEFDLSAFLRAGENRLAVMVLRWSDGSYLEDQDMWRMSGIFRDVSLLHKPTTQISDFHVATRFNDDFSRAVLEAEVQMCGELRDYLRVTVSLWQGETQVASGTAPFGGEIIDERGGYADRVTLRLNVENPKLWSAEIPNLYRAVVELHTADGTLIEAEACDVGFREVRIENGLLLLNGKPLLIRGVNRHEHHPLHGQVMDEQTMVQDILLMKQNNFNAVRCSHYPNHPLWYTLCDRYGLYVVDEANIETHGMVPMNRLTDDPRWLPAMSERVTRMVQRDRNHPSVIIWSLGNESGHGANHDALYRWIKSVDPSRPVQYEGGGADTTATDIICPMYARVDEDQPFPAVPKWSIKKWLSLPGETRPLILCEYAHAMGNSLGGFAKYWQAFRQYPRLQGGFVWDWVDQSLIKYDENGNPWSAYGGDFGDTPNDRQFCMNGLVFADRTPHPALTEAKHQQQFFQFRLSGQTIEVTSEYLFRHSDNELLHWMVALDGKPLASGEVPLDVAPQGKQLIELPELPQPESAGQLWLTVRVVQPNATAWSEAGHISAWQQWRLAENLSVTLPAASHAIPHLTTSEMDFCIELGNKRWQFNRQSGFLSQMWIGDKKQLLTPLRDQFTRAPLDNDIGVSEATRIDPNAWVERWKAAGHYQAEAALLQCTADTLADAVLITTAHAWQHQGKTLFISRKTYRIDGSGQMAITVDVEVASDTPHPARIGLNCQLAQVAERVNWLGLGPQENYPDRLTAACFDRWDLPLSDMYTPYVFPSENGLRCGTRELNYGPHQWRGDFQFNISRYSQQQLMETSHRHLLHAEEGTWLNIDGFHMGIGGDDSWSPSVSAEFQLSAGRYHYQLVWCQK
T4 sequence (P41145 whole entry): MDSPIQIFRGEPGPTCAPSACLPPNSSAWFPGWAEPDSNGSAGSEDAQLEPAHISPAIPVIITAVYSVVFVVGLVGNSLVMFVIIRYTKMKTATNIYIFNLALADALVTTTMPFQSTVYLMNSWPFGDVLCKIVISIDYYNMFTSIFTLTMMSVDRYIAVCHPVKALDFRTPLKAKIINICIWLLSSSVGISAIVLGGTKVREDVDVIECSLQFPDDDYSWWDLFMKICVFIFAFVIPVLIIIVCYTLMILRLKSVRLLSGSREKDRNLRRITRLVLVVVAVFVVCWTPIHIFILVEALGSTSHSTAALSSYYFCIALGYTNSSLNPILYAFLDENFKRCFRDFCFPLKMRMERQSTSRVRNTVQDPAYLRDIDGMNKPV
T1 sequence (O95136 whole entry): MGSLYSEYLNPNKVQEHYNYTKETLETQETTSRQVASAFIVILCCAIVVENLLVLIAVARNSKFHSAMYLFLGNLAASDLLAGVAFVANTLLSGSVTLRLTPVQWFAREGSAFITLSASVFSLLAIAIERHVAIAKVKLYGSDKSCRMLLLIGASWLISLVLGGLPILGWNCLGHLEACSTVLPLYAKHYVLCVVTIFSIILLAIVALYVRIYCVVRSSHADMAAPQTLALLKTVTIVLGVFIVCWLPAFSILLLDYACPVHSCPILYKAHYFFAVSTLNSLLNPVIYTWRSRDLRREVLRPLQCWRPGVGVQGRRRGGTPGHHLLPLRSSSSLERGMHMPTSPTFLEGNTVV
Sequence of Estrogen receptor (P03372 whole entry): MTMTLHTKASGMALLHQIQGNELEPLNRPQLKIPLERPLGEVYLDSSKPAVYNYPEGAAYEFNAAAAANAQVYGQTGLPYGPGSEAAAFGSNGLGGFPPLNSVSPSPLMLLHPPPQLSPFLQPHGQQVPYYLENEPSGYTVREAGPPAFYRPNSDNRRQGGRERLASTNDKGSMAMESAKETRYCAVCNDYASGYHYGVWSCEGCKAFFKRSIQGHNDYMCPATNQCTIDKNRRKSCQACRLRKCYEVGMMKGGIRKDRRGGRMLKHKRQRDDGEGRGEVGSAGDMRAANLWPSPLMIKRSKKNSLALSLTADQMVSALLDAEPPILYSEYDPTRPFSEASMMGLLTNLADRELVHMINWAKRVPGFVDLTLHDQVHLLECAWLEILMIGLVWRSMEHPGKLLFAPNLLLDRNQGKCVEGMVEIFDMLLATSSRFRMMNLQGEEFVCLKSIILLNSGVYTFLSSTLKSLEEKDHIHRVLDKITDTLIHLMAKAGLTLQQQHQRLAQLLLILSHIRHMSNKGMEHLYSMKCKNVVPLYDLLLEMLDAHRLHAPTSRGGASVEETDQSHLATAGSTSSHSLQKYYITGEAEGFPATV
Sequence of Mothers against decapentaplegic homolog 3 (P84022 whole entry): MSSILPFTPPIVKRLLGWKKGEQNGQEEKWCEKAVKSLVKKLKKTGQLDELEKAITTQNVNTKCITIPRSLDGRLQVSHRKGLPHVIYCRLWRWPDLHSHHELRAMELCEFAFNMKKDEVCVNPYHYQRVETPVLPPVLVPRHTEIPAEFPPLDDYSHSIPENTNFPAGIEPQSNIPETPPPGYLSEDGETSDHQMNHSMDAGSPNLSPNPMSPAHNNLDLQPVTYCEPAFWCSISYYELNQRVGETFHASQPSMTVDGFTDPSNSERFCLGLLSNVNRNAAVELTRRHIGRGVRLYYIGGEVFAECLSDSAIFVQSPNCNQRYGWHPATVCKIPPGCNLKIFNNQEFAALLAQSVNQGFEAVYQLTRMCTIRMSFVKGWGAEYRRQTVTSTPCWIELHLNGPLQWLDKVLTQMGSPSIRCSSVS
Sequence of Sphingosine 1-phosphate receptor 4 (O95977 whole entry): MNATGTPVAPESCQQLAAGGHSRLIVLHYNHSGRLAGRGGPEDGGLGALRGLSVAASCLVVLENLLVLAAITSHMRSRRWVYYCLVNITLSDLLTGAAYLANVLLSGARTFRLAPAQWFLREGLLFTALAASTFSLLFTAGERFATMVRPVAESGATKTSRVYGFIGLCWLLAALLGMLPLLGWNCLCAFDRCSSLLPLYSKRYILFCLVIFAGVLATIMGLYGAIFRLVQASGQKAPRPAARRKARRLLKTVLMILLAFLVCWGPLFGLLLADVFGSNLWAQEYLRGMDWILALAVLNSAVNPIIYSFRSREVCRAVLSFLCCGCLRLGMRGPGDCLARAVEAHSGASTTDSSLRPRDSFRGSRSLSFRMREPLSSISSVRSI
Sequence of Sphingosine 1-phosphate receptor 1 (P21453 whole entry): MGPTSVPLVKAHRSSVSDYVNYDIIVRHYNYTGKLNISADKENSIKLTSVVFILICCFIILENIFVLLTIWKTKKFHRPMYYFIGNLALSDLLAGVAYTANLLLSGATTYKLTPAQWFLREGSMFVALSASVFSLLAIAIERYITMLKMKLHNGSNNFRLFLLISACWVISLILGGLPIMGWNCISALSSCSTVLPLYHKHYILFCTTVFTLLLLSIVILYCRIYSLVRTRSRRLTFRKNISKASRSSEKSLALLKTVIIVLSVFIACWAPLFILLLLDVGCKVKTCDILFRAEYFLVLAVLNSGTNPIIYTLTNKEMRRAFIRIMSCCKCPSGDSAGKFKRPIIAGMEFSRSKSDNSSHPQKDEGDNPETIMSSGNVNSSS
Sequence of Luciferin 4-monooxygenase (P08659 whole entry): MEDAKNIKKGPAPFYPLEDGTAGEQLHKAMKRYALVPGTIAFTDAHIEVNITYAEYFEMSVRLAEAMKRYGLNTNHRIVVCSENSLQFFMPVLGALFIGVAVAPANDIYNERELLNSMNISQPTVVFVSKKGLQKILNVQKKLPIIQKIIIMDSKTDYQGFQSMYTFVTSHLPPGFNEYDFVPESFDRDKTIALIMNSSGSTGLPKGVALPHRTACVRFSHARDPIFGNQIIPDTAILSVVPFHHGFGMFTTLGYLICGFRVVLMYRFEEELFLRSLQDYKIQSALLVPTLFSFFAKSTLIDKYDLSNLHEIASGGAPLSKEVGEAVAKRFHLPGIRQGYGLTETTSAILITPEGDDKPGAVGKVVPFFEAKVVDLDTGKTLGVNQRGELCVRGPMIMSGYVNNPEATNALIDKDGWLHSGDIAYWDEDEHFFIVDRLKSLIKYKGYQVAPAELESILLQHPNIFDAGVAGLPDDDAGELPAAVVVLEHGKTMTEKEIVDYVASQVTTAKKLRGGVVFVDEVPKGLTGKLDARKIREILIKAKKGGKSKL

In the case of `Cc1cc(C)nc(SCC(=O)OCC(=O)c2cc(C)n(Cc3ccccc3)c2C)n1`, the EC50 – broadly, the midpoint of the concentration-response curve – in test [1] is > 30 µM (not active).
For the compound `COc1ccc(NC(=O)/C(Cl)=C(/Cl)[S+]([O-])Cc2ccc(C)cc2)cn1` (stereo not drawn), the EC50 in test [2] was > 49.7 µM (not active); in test [3], 0.96 µM (active); in test [6], > 49.7 µM (not active); in [7], > 40 µM (inactive); in test [8] it was > 112 µM (not active); in test [9] it was 5.74 µM (active). In addition, the EC50 in test [14] is > 31.5 µM (inactive). Moreover, the 50% inhibitory concentration (IC50) (commonly the concentration at which inhibition is half-maximal) was 0.967 µM (active) in test [4]; 0.879 µM (active) in test [11]; 2.26 µM (active) in test [12]; 3.76 µM (active) in test [13]; 0.396 µM (active) in [15]; 4.71 µM in [16]. Further, the IC50 in [17] is 4.46 µM (active); in [18] it was 29.8 µM (inactive). Moreover, the CC50 in test [5] was 1.12 µM (active); in [10] it was 2.13 µM (active). Moreover, the AC50 (in general, the concentration giving half of the maximal activity seen) in test [19] is 0.855 µM (active).
For the compound `Cc1occc1C(=O)Nc1ccccc1NC(=O)c1ccoc1C`, the figures for the IC50 in [20], in test [21] and in [22] were > 50 µM (not active), > 50 µM (not active) and 0.155 µM (not active), respectively.
As to `COc1ccc(C(c2cc3c(cc2O)OCO3)N2CCOCC2)cc1` (stereo not drawn), in test [23], the IC50 is listed as 6.51 µM (not active).
